Values of other authors as cited in US11737981B2, “Cellulosic polymer nanoparticles and methods of forming them” (The Trustees of Princeton University, priority 2017, dated 2023).
≈ marks a conversion by molar mass, not a printed value.

Row | Compound | solubility in water
1 | CCC(C)n1ncn(-c2ccc(N3CCN(c4ccc(OCC5COC(Cn6cncn6)(c6ccc(Cl)cc6Cl)O5)cc4)CC3)cc2)c1=O (stereo not drawn) [Itraconazole] | ~9.6 µg/mL (≈ 13.6 µM)
2 | artefenomel mesylate [OZ439 mesylate] | about 0.47 mg/L
3 | CCCCN(CCCC)CC(O)c1cc(Cl)cc2c1-c1ccc(Cl)cc1/C2=C/c1ccc(Cl)cc1 (stereo not drawn) [Lumefantrine] | about 0.031 mg/L
